Experimental data from paper PMC5896380, “Selective imaging of cathepsin L in breast cancer by fluorescent activity-based probes” (Chemical Science, 2018).
Non-standard residues stand in square brackets, D forms with d. *: point of attachment. Phe(F5) = N[C@@H](Cc1c(F)c(F)c(F)c(F)c1F)C(=O)O; Phe(3,4-F2) = N[C@@H](Cc1ccc(F)c(F)c1)C(=O)O; Phe(2-Cl) = N[C@@H](Cc1ccccc1Cl)C(=O)O; Phe(3-F) = N[C@@H](Cc1cccc(F)c1)C(=O)O; Phe(4-F) = N[C@@H](Cc1ccc(F)cc1)C(=O)O; ACC = NC(=O)Cc1cc(=O)oc2cc(N*)ccc12; Tic = O=C(O)[C@@H]1Cc2ccccc2CN1; Orn = NCCC[C@H](N)C(=O)O; Bn = c1ccc(C*)cc1

Legend:
Format in all cases: biochemical
cathepsin V [1] = molecular target: T1, cathepsin V (Homo sapiens, UniProt O60911); test: Substrate selectivity screening, rate of hydrolysis, cathepsin V; conditions: Table S4; substrate 100µM, cathepsin 5nM; pH 5.5, 37 °C; average of at least three screenings
T1 construct: made in house
T1 sequence (O60911 114-334): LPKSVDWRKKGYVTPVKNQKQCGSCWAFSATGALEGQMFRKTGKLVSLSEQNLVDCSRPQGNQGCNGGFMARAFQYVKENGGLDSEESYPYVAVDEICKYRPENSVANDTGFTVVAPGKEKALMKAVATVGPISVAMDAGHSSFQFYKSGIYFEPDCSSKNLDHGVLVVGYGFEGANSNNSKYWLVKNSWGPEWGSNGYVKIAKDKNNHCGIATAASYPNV
Description: (§1) All kinetic experiments were performed using fMax (Molecular Devices) and CLARIOStar (BMG LABTECH) spectrofluorimeters operating in kinetic mode using 96-well plates. ACC-labeled substrates were screened using 355 nm and 460 nm wavelengths (excitation and emission, respectively). […] The buffer was prepared at room temperature and the enzyme kinetic studies were performed at 37 °C.
(§2) All potentially selective cathepsin L substrates were tested for their selectivity against a panel of five different cathepsins, containing cathepsins L, V, S, K and […], at concentrations of 2 μM and 100 μM. To obtain reliable results the concentration of each cathepsin was 5 nM. Substrate hydrolysis was carried out for 10 min (for cathepsin L) and for up to 60 min (for other cathepsins). Hydrolysis rates (RFU s^–1) are presented as average values from at least three screenings.

cathepsin K [2] = molecular target: T2, cathepsin K (Homo sapiens, UniProt P43235); test: Substrate selectivity screening, rate of hydrolysis, cathepsin K; conditions: Table S4; substrate 100µM, cathepsin 5nM; pH 5.5, 37 °C; average of at least three screenings
T2 construct: made in house
T2 sequence (P43235 115-329): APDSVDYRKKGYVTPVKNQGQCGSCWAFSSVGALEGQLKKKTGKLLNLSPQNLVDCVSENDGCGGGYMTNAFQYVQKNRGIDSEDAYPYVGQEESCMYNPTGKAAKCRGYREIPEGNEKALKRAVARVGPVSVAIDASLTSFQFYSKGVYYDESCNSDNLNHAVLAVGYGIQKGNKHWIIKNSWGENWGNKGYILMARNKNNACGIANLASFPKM
Description: as §1, §2

cathepsin B [3] = molecular target: T3, cathepsin B (Homo sapiens, UniProt P07858); test: Substrate selectivity screening, rate of hydrolysis, cathepsin B; conditions: Table S4; substrate 100µM, cathepsin 5nM; pH 5.5, 37 °C; average of at least three screenings
T3 construct: made in house
Description: as §1, §2

cathepsin S [4] = molecular target: T4, cathepsin S (Homo sapiens, UniProt P25774); test: Substrate selectivity screening, rate of hydrolysis, cathepsin S; conditions: Table S4; substrate 100µM, cathepsin 5nM; pH 5.5, 37 °C; average of at least three screenings
T4 construct: made in house
T4 sequence (P25774 115-331): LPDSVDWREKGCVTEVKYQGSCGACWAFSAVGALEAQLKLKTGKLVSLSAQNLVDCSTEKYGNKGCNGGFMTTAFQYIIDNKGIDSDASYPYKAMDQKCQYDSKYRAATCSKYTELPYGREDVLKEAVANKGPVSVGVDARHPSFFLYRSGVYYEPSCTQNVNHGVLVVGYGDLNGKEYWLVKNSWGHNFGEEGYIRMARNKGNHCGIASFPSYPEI
Description: as §1, §2

cathepsin L [5] = molecular target: T5, cathepsin L (Homo sapiens, UniProt P07711); test: Substrate selectivity screening, rate of hydrolysis, cathepsin L; conditions: Table S4; substrate 100µM, cathepsin 5nM; pH 5.5, 37 °C; average of at least three screenings
T5 construct: made in house
T5 sequence (P07711 114-333): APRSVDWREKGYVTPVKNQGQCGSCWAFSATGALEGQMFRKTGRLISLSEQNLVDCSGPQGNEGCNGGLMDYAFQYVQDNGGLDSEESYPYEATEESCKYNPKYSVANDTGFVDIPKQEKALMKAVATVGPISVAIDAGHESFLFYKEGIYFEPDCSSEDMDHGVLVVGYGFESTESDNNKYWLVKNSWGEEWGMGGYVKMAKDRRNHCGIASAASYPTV
Description: as §1, §2

cathepsin L [6] = molecular target: T5, cathepsin L; test: Kinetic parameters of ACC substrates with cathepsin L; conditions: for kcat/KM Cath-L: Fig. 5B, pH 5.5, 37 °C, cathepsin L 0.1–0.5 nM, triplicate, SD below 15%
Description: as §1
(§3) Classic substrate velocity plots were analyzed according to Michaelis–Menten kinetics and a detailed protocol for the determination of kinetic parameters for ACC-tagged substrates is found elsewhere.[56] […] Experiments were repeated at least three times and results are presented as an average. The SDs were below 15%.

cathepsin V [7] = molecular target: T1, cathepsin V; test: Kinetic parameters of ACC substrates with cathepsin V; conditions: for kcat/KM Cath-V: Fig. 5B, pH 5.5, 37 °C, cathepsin V 10–20 nM, triplicate, SD below 15%
Description: as §1, §3

cathepsin S [8] = molecular target: T4, cathepsin S; test: Kinetic parameters of ACC substrates with cathepsin S; conditions: for kcat/KM Cath-S: Fig. 5B, pH 5.5, 37 °C, cathepsin S 5–20 nM, triplicate, SD below 15%
Description: as §1, §3

cathepsin K [9] = molecular target: T2, cathepsin K; test: Kinetic parameters of ACC substrates with cathepsin K; conditions: for kcat/KM Cath-K: Fig. 5B, pH 5.5, 37 °C, cathepsin K 5–20 nM, triplicate, SD below 15%
Description: as §1, §3

cathepsin B [10] = molecular target: T3, cathepsin B; test: Kinetic parameters of ACC substrates with cathepsin B; conditions: for kcat/KM Cath-B: Fig. 5B, pH 5.5, 37 °C, cathepsin B 4–15 nM, triplicate, SD below 15%
Description: as §1, §3

[11] = Table S7, four independent experiments, S.D. below 15%

Relative substrate activity (rate of hydrolysis), cathepsin V (cathepsin V [1]) [RFU/s]	Relative substrate activity (rate of hydrolysis), cathepsin K (cathepsin K [2]) [RFU/s]	Relative substrate activity (rate of hydrolysis), cathepsin B (cathepsin B [3]) [RFU/s]	Relative substrate activity (rate of hydrolysis), cathepsin S (cathepsin S [4]) [RFU/s]	Relative substrate activity (rate of hydrolysis), cathepsin L (cathepsin L [5]) [RFU/s]	Substance	kcat/KM Cath-L (cathepsin L [6])	kcat/KM Cath-V (cathepsin V [7])	kcat/KM Cath-S (cathepsin S [8])	kcat/KM Cath-K (cathepsin K [9])	kcat/KM Cath-B (cathepsin B [10])	further results
30.5	0.0	22.3	12.7	474	Ac-H[dR][Phe(3,4-F2)]L-{ACC} (SMILES CC(=O)N[C@@H](Cc1c[nH]cn1)C(=O)N[C@H](CCCNC(=N)N)C(=O)N[C@@H](Cc1ccc(F)c(F)c1)C(=O)N[C@@H](CC(C)C)C(=O)Nc1ccc2c(CC(N)=O)cc(=O)oc2c1)						
103	1.2	9.4	7.8	699	Ac-Pip-DLeu-Phe(3,4-F2)-Arg-ACC						
					Ac-His-DVal-Phe(F5)-Nle(OBzl)-ACC	2,290,000 M^-1s^-1	3,820 M^-1s^-1	508 M⁻¹ s⁻¹	906 M⁻¹ s⁻¹	2,500 M^-1s^-1	
					Ac-H[dV][Phe(2-Cl)]R-{ACC} (SMILES CC(=O)N[C@@H](Cc1c[nH]cn1)C(=O)N[C@@H](C(=O)N[C@@H](Cc1ccccc1Cl)C(=O)N[C@@H](CCCNC(=N)N)C(=O)Nc1ccc2c(CC(N)=O)cc(=O)oc2c1)C(C)C)	5,689,000 M^-1s^-1	11,600 M^-1s^-1	2,760 M^-1s^-1	13,000 M^-1s^-1	1,360 M^-1s^-1	
					Ac-H[dV]T(Bn)R-{ACC} (SMILES CC(=O)N[C@@H](Cc1c[nH]cn1)C(=O)N[C@@H](C(=O)N[C@H](C(=O)N[C@@H](CCCNC(=N)N)C(=O)Nc1ccc2c(CC(N)=O)cc(=O)oc2c1)[C@@H](C)OCc1ccccc1)C(C)C)	158,520 M^-1s^-1	424 M⁻¹ s⁻¹	< 10 M⁻¹ s⁻¹	130 M⁻¹ s⁻¹	480 M⁻¹ s⁻¹	
					Ac-H[dV][Phe(3-F)]R-{ACC} (SMILES CC(=O)N[C@@H](Cc1c[nH]cn1)C(=O)N[C@@H](C(=O)N[C@@H](Cc1cccc(F)c1)C(=O)N[C@@H](CCCNC(=N)N)C(=O)Nc1ccc2c(CC(N)=O)cc(=O)oc2c1)C(C)C)	8,432,000 M^-1s^-1	12,600 M^-1s^-1	814 M⁻¹ s⁻¹	5,700 M^-1s^-1	6,280 M^-1s^-1	
					Ac-H[dV][Phe(F5)]C(Bn)-{ACC} (SMILES CC(=O)N[C@@H](Cc1c[nH]cn1)C(=O)N[C@@H](C(=O)N[C@@H](Cc1c(F)c(F)c(F)c(F)c1F)C(=O)N[C@@H](CSCc1ccccc1)C(=O)Nc1ccc2c(CC(N)=O)cc(=O)oc2c1)C(C)C)	732,900 M^-1s^-1	1,250 M^-1s^-1	< 10 M⁻¹ s⁻¹	190 M⁻¹ s⁻¹	1,370 M^-1s^-1	kcat Cat L (cathepsin L [6]; [11]): 4.21 s⁻¹; kcat/KM Cat L (cathepsin L [6]; [11]): 732,900 M-1s-1; Km (cathepsin L [6]; Table S7, four independent experiments, S.D. below 15%, read-out: KM Cat L): 5.67 µM; kcat Cat V (cathepsin V [7]; [11]): 0.00971 s⁻¹; kcat/KM Cat V (cathepsin V [7]; [11]): 1,250 M-1s-1; Km (cathepsin V [7]; Table S7, four independent experiments, S.D. below 15%, read-out: KM Cat V): 7.76 µM; kcat/KM Cat S (cathepsin S [8]; [11]): < 10 M⁻¹ s⁻¹; kcat Cat K (cathepsin K [9]; [11]): 0.00221 s⁻¹; kcat/KM Cat K (cathepsin K [9]; [11]): 190 M⁻¹ s⁻¹; Km (cathepsin K [9]; Table S7, four independent experiments, S.D. below 15%, read-out: KM Cat K): 11.5 µM; kcat Cat B (cathepsin B [10]; [11]): 0.0115 s⁻¹; kcat/KM Cat B (cathepsin B [10]; [11]): 1,370 M-1s-1; Km (cathepsin B [10]; Table S7, four independent experiments, S.D. below 15%, read-out: KM Cat B): 8.19 µM

Substance	Relative substrate activity (rate of hydrolysis), cathepsin V (cathepsin V [1]) [RFU/s]	Relative substrate activity (rate of hydrolysis), cathepsin K (cathepsin K [2]) [RFU/s]	Relative substrate activity (rate of hydrolysis), cathepsin B (cathepsin B [3]) [RFU/s]	Relative substrate activity (rate of hydrolysis), cathepsin S (cathepsin S [4]) [RFU/s]	Relative substrate activity (rate of hydrolysis), cathepsin L (cathepsin L [5]) [RFU/s]	kcat/KM Cath-L (cathepsin L [6])	kcat/KM Cath-V (cathepsin V [7])	kcat/KM Cath-S (cathepsin S [8])	kcat/KM Cath-K (cathepsin K [9])	kcat/KM Cath-B (cathepsin B [10])	further results
Ac-[Tic][Orn][Phe(4-F)]L-{ACC} (SMILES CC(=O)N1Cc2ccccc2C[C@H]1C(=O)N[C@@H](CCCN)C(=O)N[C@@H](Cc1ccc(F)cc1)C(=O)N[C@@H](CC(C)C)C(=O)Nc1ccc2c(CC(N)=O)cc(=O)oc2c1)	31.7	0.0	15.0	4.7	684						
